# Test results as given in the kinase profiling compilation of Christmann-Franck et al. (2016).
# Columns and labels:
# Assay in all cases: radiometric filter-binding kinase assay
# [1] = test system: AKT1 (human), P31749 [S473D]
# AURKA (human) = AURKA (human) (UniProt O14965)
# BRSK1 (human) = BRSK1 (human) (UniProt Q8TDC3)
# DYRK2 (human) = DYRK2 (human) (UniProt Q92630)
# EEF2K (human) = EEF2K (human) (UniProt O00418)
# EPHA2 (human) = EPHA2 (human) (UniProt P29317)
# EPHB3 (human) = EPHB3 (human) (UniProt P54753)
# ERBB4 (human) = ERBB4 (human) (UniProt Q15303)
# GSK3B (human) = GSK3B (human) (UniProt P49841)
# HIPK3 (human) = HIPK3 (human) (UniProt Q9H422)
# INSR (human) = INSR (human) (UniProt P06213)
# IRAK4 (human) = IRAK4 (human) (UniProt Q9NWZ3)
# MAP2K2 (human) = MAP2K2 (human) (UniProt P36507)
# MAP2K6 (human) = MAP2K6 (human) (UniProt P52564)
# MAP3K1 (human) = MAP3K1 (human) (UniProt Q13233)
# MAP3K11 (human) = MAP3K11 (human) (UniProt Q16584)
# MAP3K5 (human) = MAP3K5 (human) (UniProt Q99683)
# MAP3K7 TAB1 (human) = MAP3K7 TAB1 (human) (UniProt Q15750+O43318)
# MAP3K9 (human) = MAP3K9 (human) (UniProt P80192)
# MAPK12 (human) = MAPK12 (human) (UniProt P53778)
# MAPK9 (human) = MAPK9 (human) (UniProt P45984)
# MAPKAPK2 (human) = MAPKAPK2 (human) (UniProt P49137)
# MARK1 (human) = MARK1 (human) (UniProt Q9P0L2)
# MARK2 (human) = MARK2 (human) (UniProt Q7KZI7)
# MARK4 (human) = MARK4 (human) (UniProt Q96L34)
# MELK (human) = MELK (human) (UniProt Q14680)
# MST4 (human) = MST4 (human) (UniProt Q9P289)
# NTRK1 (human) = NTRK1 (human) (UniProt P04629)
# NUAK1 (human) = NUAK1 (human) (UniProt O60285)
# PAK4 (human) = PAK4 (human) (UniProt O96013)
# PAK6 (human) = PAK6 (human) (UniProt Q9NQU5)
# PIM1 (human) = PIM1 (human) (UniProt P11309)
# PKN2 (human) = PKN2 (human) (UniProt Q16513)
# PRKCA (human) = PRKCA (human) (UniProt P17252)
# PRKCZ (human) = PRKCZ (human) (UniProt Q05513)
# [2] = biological target: STK11 CAB39 STRADA (human) (UniProt Q9Y376+Q7RTN6+Q15831)
# Chain of MARK1 (human) (Q9P0L2 whole entry, looked up): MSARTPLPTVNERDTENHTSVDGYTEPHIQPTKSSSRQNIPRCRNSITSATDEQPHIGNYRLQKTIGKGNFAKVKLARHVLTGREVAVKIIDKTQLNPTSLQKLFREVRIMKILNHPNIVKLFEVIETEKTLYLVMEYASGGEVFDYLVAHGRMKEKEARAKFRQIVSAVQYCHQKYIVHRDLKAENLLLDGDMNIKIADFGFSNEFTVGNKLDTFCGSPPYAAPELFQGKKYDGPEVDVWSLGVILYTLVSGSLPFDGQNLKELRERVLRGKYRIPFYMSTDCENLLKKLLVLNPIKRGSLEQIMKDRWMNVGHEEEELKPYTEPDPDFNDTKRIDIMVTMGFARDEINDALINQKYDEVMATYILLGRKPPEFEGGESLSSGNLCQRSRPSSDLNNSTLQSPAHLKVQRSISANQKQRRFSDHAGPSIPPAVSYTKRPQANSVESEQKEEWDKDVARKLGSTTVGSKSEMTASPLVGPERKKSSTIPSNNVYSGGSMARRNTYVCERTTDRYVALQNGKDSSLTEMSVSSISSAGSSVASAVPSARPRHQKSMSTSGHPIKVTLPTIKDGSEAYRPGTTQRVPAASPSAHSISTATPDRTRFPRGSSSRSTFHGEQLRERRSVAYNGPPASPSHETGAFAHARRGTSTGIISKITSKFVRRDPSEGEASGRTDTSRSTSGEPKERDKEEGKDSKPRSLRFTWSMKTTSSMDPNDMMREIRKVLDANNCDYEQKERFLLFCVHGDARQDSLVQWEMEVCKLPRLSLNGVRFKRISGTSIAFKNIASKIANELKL
# Chain of MAP3K7 TAB1 (human) (O43318 whole entry, looked up): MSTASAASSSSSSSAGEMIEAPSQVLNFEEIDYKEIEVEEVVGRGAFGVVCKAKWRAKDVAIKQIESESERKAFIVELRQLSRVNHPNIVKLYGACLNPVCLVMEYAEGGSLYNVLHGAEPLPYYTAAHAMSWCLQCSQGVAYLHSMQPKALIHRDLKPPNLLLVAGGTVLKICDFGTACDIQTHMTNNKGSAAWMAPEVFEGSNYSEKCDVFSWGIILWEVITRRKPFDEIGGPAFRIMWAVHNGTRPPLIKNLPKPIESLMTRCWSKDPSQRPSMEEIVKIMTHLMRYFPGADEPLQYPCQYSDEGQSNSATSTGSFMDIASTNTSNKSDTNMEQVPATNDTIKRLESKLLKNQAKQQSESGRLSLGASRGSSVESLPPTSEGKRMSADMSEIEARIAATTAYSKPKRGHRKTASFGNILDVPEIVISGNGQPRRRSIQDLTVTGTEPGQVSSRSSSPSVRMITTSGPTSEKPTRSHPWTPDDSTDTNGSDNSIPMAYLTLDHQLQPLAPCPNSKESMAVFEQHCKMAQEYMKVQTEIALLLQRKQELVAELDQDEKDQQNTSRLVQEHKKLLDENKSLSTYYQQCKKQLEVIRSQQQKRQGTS
# Chain of MAP3K7 TAB1 (human) (Q15750 whole entry, looked up): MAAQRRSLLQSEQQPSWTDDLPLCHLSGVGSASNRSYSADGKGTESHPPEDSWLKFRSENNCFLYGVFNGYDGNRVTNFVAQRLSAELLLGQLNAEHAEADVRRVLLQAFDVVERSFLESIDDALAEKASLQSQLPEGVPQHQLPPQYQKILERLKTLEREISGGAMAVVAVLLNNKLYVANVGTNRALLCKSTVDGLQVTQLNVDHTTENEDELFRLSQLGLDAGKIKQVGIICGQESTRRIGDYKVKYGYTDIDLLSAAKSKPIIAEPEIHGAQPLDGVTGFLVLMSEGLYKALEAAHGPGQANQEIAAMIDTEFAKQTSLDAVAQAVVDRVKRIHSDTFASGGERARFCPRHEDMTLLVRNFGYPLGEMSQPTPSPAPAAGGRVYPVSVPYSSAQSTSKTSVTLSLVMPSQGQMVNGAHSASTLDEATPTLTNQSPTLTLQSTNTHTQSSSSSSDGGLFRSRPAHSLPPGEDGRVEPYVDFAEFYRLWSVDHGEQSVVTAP
# Chain of MELK (human) (Q14680 whole entry, looked up): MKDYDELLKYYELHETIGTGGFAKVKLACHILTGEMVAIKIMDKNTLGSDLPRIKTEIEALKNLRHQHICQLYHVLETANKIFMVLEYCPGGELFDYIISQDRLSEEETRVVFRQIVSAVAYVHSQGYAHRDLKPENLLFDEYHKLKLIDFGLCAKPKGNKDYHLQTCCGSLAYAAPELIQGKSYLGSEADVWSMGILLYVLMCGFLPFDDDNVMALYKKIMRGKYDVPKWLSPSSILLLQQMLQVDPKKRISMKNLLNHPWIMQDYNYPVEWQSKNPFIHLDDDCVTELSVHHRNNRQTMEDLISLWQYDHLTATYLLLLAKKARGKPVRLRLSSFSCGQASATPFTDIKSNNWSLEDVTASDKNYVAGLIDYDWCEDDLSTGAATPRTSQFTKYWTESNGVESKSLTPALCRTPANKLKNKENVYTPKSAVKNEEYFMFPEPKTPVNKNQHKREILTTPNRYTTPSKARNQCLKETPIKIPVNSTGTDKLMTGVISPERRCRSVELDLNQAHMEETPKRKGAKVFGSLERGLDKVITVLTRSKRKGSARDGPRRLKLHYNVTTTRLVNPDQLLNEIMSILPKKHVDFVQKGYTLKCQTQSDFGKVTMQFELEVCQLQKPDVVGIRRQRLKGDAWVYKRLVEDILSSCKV
# Chain of MARK4 (human) (Q96L34 whole entry, looked up): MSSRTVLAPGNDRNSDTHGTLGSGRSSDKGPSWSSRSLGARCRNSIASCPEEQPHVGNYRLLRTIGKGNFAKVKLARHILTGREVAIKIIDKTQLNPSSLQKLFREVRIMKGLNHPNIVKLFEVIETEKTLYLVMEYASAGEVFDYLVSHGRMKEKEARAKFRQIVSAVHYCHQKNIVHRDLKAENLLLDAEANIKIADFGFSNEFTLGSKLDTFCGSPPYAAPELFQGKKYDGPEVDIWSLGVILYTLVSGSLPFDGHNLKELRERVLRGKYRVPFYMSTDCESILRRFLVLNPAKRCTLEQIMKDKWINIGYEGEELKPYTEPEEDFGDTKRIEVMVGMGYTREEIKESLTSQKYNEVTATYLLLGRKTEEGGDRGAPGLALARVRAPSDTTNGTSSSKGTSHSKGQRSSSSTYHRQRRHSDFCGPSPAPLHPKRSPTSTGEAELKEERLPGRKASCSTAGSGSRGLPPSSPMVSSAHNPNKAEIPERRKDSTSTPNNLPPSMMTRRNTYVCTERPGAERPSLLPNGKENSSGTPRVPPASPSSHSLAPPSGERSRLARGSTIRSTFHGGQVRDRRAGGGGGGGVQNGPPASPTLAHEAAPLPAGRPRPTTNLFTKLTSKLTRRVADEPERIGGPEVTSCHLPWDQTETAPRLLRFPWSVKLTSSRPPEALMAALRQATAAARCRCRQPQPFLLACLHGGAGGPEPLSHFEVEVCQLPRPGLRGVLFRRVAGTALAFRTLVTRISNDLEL
# Chain of MAP3K5 (human) (Q99683 whole entry, looked up): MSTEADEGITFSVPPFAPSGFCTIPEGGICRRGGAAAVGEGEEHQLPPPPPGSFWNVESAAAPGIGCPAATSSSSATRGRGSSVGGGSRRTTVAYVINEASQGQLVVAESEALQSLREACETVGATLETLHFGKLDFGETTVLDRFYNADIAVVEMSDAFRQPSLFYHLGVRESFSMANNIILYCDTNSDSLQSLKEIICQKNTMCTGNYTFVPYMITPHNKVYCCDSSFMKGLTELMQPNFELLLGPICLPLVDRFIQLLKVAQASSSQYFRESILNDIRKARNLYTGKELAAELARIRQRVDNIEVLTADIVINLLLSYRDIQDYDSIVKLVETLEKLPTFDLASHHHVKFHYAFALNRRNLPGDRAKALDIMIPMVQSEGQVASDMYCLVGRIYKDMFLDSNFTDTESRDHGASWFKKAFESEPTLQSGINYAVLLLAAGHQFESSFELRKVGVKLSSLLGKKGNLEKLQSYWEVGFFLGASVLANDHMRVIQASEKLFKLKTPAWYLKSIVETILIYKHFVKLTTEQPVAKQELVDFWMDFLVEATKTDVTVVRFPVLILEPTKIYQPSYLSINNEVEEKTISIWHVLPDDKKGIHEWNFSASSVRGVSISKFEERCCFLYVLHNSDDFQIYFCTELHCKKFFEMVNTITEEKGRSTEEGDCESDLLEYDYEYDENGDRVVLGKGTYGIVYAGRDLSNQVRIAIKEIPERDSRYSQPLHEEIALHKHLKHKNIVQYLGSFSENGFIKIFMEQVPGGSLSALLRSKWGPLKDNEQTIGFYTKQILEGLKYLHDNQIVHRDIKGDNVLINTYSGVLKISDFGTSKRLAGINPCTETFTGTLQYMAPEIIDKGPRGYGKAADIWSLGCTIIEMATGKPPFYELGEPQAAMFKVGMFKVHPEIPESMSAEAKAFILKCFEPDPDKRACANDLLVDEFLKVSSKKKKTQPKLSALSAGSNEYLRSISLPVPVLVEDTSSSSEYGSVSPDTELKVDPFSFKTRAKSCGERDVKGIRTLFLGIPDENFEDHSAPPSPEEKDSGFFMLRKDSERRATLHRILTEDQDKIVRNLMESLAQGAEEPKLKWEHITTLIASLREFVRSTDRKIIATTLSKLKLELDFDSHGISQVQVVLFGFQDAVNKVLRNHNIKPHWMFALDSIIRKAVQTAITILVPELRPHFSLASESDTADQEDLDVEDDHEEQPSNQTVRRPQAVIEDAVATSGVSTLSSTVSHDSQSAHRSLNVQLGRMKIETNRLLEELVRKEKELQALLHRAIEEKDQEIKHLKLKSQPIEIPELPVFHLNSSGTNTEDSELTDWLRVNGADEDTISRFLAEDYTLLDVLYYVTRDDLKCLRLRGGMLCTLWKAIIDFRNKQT
# Chain of PIM1 (human) (P11309 whole entry, looked up): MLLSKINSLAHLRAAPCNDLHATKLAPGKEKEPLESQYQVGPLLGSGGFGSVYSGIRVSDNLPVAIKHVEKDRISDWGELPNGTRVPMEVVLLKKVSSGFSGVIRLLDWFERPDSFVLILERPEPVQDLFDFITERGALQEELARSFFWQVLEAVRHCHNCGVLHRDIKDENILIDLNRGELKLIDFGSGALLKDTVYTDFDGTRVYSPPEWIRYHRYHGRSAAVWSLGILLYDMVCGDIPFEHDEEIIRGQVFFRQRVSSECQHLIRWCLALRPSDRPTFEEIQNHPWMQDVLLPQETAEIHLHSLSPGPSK
compound,measurement,setting,value
CCCCCc1ccc(/C=C/[C@H](O)[C@@H](CO)NC)cc1,residual activity,[1]; compound 0.1 µM,99%
same,residual activity,[1]; compound 1.0 µM,97%
same,residual activity,AURKA (human); compound 0.1 µM,116%
same,residual activity,AURKA (human); compound 1.0 µM,105%
same,residual activity,AURKA (human); compound 10.0 µM,92%
same,residual activity,BRSK1 (human); compound 0.1 µM,114%
same,residual activity,BRSK1 (human); compound 1.0 µM,111%
same,residual activity,BRSK1 (human); compound 10.0 µM,97%
same,residual activity,DYRK2 (human); compound 0.1 µM,116%
same,residual activity,DYRK2 (human); compound 1.0 µM,124%
same,residual activity,DYRK2 (human); compound 10.0 µM,119%
same,residual activity,EEF2K (human); compound 0.1 µM,93%
same,residual activity,EEF2K (human); compound 1.0 µM,76%
same,residual activity,EEF2K (human); compound 10.0 µM,69%
same,residual activity,EPHA2 (human); compound 0.1 µM,103%
same,residual activity,EPHA2 (human); compound 1.0 µM,91%
same,residual activity,EPHA2 (human); compound 10.0 µM,91%
same,residual activity,EPHB3 (human); compound 0.1 µM,104%
same,residual activity,EPHB3 (human); compound 1.0 µM,100%
same,residual activity,EPHB3 (human); compound 10.0 µM,86%
same,residual activity,ERBB4 (human); compound 0.1 µM,127%
same,residual activity,ERBB4 (human); compound 10.0 µM,105%
same,residual activity,GSK3B (human); compound 0.1 µM,83%
same,residual activity,GSK3B (human); compound 1.0 µM,88%
same,residual activity,GSK3B (human); compound 10.0 µM,71%
same,residual activity,HIPK3 (human); compound 0.1 µM,118%
same,residual activity,HIPK3 (human); compound 1.0 µM,112%
same,residual activity,HIPK3 (human); compound 10.0 µM,102%
same,residual activity,INSR (human); compound 0.1 µM,107%
same,residual activity,INSR (human); compound 10.0 µM,99%
same,residual activity,IRAK4 (human); compound 0.1 µM,72%
same,residual activity,IRAK4 (human); compound 1.0 µM,66%
same,residual activity,IRAK4 (human); compound 10.0 µM,67%
same,residual activity,MAP2K2 (human); compound 0.1 µM,104%
same,residual activity,MAP2K2 (human); compound 1.0 µM,103%
same,residual activity,MAP2K2 (human); compound 10.0 µM,109%
same,residual activity,MAP2K6 (human); compound 0.1 µM,102%
same,residual activity,MAP2K6 (human); compound 1.0 µM,98%
same,residual activity,MAP2K6 (human); compound 10.0 µM,99%
same,residual activity,MAP3K1 (human); compound 0.1 µM,93%
same,residual activity,MAP3K1 (human); compound 1.0 µM,99%
same,residual activity,MAP3K1 (human); compound 10.0 µM,89%
same,residual activity,MAP3K11 (human); compound 0.1 µM,102%
same,residual activity,MAP3K11 (human); compound 1.0 µM,106%
same,residual activity,MAP3K11 (human); compound 10.0 µM,109%
same,residual activity,MAP3K5 (human); compound 0.1 µM,115%
same,residual activity,MAP3K5 (human); compound 1.0 µM,99%
same,residual activity,MAP3K5 (human); compound 10.0 µM,94%
same,residual activity,MAP3K7 TAB1 (human); compound 0.1 µM,100%
same,residual activity,MAP3K7 TAB1 (human); compound 1.0 µM,108%
same,residual activity,MAP3K7 TAB1 (human); compound 10.0 µM,111%
same,residual activity,MAP3K9 (human); compound 0.1 µM,105%
same,residual activity,MAP3K9 (human); compound 1.0 µM,108%
same,residual activity,MAP3K9 (human); compound 10.0 µM,100%
same,residual activity,MAPK12 (human); compound 0.1 µM,93%
same,residual activity,MAPK12 (human); compound 1.0 µM,80%
same,residual activity,MAPK12 (human); compound 10.0 µM,87%
same,residual activity,MAPK9 (human); compound 0.1 µM,85%
same,residual activity,MAPK9 (human); compound 1.0 µM,90%
same,residual activity,MAPK9 (human); compound 10.0 µM,88%
same,residual activity,MAPKAPK2 (human); compound 0.1 µM,98%
same,residual activity,MAPKAPK2 (human); compound 1.0 µM,95%
same,residual activity,MAPKAPK2 (human); compound 10.0 µM,91%
same,residual activity,MARK1 (human); compound 0.1 µM,114%
same,residual activity,MARK1 (human); compound 1.0 µM,112%
same,residual activity,MARK1 (human); compound 10.0 µM,104%
same,residual activity,MARK2 (human); compound 0.1 µM,89%
same,residual activity,MARK2 (human); compound 1.0 µM,97%
same,residual activity,MARK2 (human); compound 10.0 µM,83%
same,residual activity,MARK4 (human); compound 0.1 µM,90%
same,residual activity,MARK4 (human); compound 1.0 µM,89%
same,residual activity,MARK4 (human); compound 10.0 µM,93%
same,residual activity,MELK (human); compound 0.1 µM,108%
same,residual activity,MELK (human); compound 1.0 µM,99%
same,residual activity,MELK (human); compound 10.0 µM,98%
same,residual activity,MST4 (human); compound 0.1 µM,116%
same,residual activity,MST4 (human); compound 1.0 µM,96%
same,residual activity,MST4 (human); compound 10.0 µM,108%
same,residual activity,NTRK1 (human); compound 0.1 µM,103%
same,residual activity,NTRK1 (human); compound 1.0 µM,110%
same,residual activity,NTRK1 (human); compound 10.0 µM,86%
same,residual activity,NUAK1 (human); compound 0.1 µM,105%
same,residual activity,NUAK1 (human); compound 1.0 µM,108%
same,residual activity,NUAK1 (human); compound 10.0 µM,101%
same,residual activity,PAK4 (human); compound 0.1 µM,91%
same,residual activity,PAK4 (human); compound 1.0 µM,91%
same,residual activity,PAK4 (human); compound 10.0 µM,85%
same,residual activity,PAK6 (human); compound 0.1 µM,105%
same,residual activity,PAK6 (human); compound 1.0 µM,108%
same,residual activity,PAK6 (human); compound 10.0 µM,103%
same,residual activity,PIM1 (human); compound 0.1 µM,100%
same,residual activity,PIM1 (human); compound 1.0 µM,95%
same,residual activity,PIM1 (human); compound 10.0 µM,95%
same,residual activity,PKN2 (human); compound 0.1 µM,78%
same,residual activity,PKN2 (human); compound 1.0 µM,70%
same,residual activity,PKN2 (human); compound 10.0 µM,58%
same,residual activity,PRKCA (human); compound 0.1 µM,96%
same,residual activity,PRKCA (human); compound 1.0 µM,88%
same,residual activity,PRKCA (human); compound 10.0 µM,89%
same,residual activity,PRKCZ (human); compound 0.1 µM,106%
same,residual activity,PRKCZ (human); compound 1.0 µM,108%
same,residual activity,PRKCZ (human); compound 10.0 µM,92%
same,residual activity,[2]; compound 0.1 µM,93%
same,residual activity,[2]; compound 1.0 µM,89%
same,residual activity,[2]; compound 10.0 µM,98%
